Data published in patent publication US20040259179A1, “Sterol markers as diagnostic tools in the prevention of atherosclerotic diseases and as tools to aid in the selection of agents to be used for the prevention and treatment of atherosclerotic disease” (priority 2003, published 2004).
Marks after values point to notes of the source that are not given here.

Experiments:
Format in all cases: in vivo, human
[1] = test system: patients with primary hypercholesterolemia; test: Non-cholesterol sterol analysis of plasma by GC-MS, EZE/SIMVA trial (Example 2); conditions: for effect on concentrations of sitosterol and campesterol (baseline to endpoint), in words: FIG. 6; for Campesterol Ratio: Mean change (sterol:cholesterol) / Desmosterol Ratio: Mean change (sterol:cholesterol) / Lathosterol Ratio: Mean change (sterol:cholesterol) / Sitosterol Ratio: Mean change (sterol:cholesterol) / Campesterol % change (Mean % change) / Desmosterol % change (Mean % change) / Lathosterol % change (Mean % change) / Sitosterol % change (Mean % change): baseline to endpoint, 12 weeks daily treatment, EZE 10 mg; for Campesterol Ratio: Mean change (sterol:cholesterol) / Desmosterol Ratio: Mean change (sterol:cholesterol) / Lathosterol Ratio: Mean change (sterol:cholesterol) / Sitosterol Ratio: Mean change (sterol:cholesterol) / Campesterol % change (Mean % change) / Desmosterol % change (Mean % change) / Lathosterol % change (Mean % change): SIMVA pool of all doses; for Campesterol % change (Mean % change) / Desmosterol % change (Mean % change) / Lathosterol % change (Mean % change) / Sitosterol % change (Mean % change): plasma concentration; for Sitosterol % change (Mean % change): SIMVA pool of all doses 10-80 mg
Experimental: (§1) A post-hoc analysis of a randomized, double-blind, placebo-controlled trial of primary hypercholesterolemia patients (LDL-C 145-250 mg/dl and TG≦350 mg/dl) was conducted to examine the effects of 12 weeks of daily treatment with ezetimibe (EZE) 10 mg, simvastatin (SIMVA) pooled doses 10-80 mg, or EZE 10 mg/SIMVA 10-80 mg (EZE/SIMVA) coadministration (pooled) on concentrations of phytosterols (sitosterol and campesterol) and cholesterol precursors (lathosterol and desmosterol). Baseline and endpoint plasma samples of 578 patients were analyzed by GC-mass spectrometry
Following a 4 week placebo lead-in/diet phase, patients with primary hypercholesterolemia (LDL-C 145-250 mg/dL and TG≦350 mg/dL) were randomized on one of the following daily treatments for 12 weeks:
Of 668 patients randomized to treatment in the original study, 578 (86%) had evaluable −70° C. plasma samples for both baseline and endpoint visits. Concentrations of non-cholesterol sterols were measured by gas chromatography-mass spectrometry (GC-MS).
(§2) The primary efficacy parameter was mean percent change in plasma sitosterol concentration from baseline to endpoint comparing EZE/SIMVA (pooled across doses) versus SIMVA monotherapy (pooled across doses). Other efficacy parameters included mean percent changes in campesterol, lathosterol and desmosterol concentrations as well as mean changes in the ratios of each of these sterols to cholesterol.
(§3) Two-tailed testing was conducted at a=0.05. To compare treatment effects on sterol concentrations and ratios, an ANCOVA model including the fixed effects of treatment, dose, and dose-by-treatment interaction was used with the baseline value as the covariate.

[2] = test system: patients with primary hypercholesterolemia; test: LDL-C and other lipid parameters by treatment, EZE/SIMVA trial (Example 2); conditions: 12 weeks daily treatment, EZE 10 mg, pooled SIMVA 10-80 mg; for Triglycerides (median) % Change (±SE) from Baseline: median and SE from raw data
Experimental: as §1
Following a 4 week placebo lead-in/diet phase, patients with primary hypercholesterolemia (LDL-C 145-250 mg/dL and TG≦350 mg/dL) were randomized on one of the following daily treatments for 12 weeks: […]

[3] = test system: patients with primary hypercholesterolemia; test: Non-cholesterol sterol analysis of plasma by GC-MS, EZE/ATORVA trial (Example 3); conditions: for effect on concentrations of sitosterol and campesterol (baseline to endpoint), in words: FIG. 11; for effect on concentrations of sitosterol and campesterol (baseline to endpoint), in words / effect on concentrations of cholesterol precursors lathosterol and desmosterol (baseline to endpoint), in words / effect on ratios of sitosterol:cholesterol and campesterol:cholesterol, in words / effect on ratios of lathosterol:cholesterol and desmosterol:cholesterol, in words: pooled doses, 12 weeks; for effect on concentrations of cholesterol precursors lathosterol and desmosterol (baseline to endpoint), in words: FIG. 13; for effect on ratios of sitosterol:cholesterol and campesterol:cholesterol, in words: Table in FIG. 11; for effect on ratios of lathosterol:cholesterol and desmosterol:cholesterol, in words: Table in FIG. 13; for Campesterol Noncholesterols:Cholesterol Ratio: Mean change / Desmosterol Noncholesterols:Cholesterol Ratio: Mean change / Lathosterol Noncholesterols:Cholesterol Ratio: Mean change / Sitosterol Noncholesterols:Cholesterol Ratio: Mean change / Campesterol % chng LSmean (absolute sterol concentrations) / Desmosterol % chng LSmean (absolute sterol concentrations) / Lathosterol % chng LSmean (absolute sterol concentrations) / Sitosterol % chng LSmean (absolute sterol concentrations): baseline to endpoint, 12 weeks daily treatment, EZE 10 mg, ATORVA pooled; for Campesterol % chng LSmean (absolute sterol concentrations) / Desmosterol % chng LSmean (absolute sterol concentrations) / Lathosterol % chng LSmean (absolute sterol concentrations) / Sitosterol % chng LSmean (absolute sterol concentrations): plasma
Experimental: (§4) A post-hoc analysis of a randomized, double-blind, placebo-controlled trial of primary hypercholesterolemia patients (LDL-C 145-250 mg/dl and TG<350 mg/dl) was conducted. Baseline and endpoint samples of 397 patients were analyzed by GCMS
In this trial, following a 4 week placebo lead-in/diet phase, patients with primary hypercholesterolemia (LDL-C 3.8-6.5 mmol/L [145-250 mg/dL] and TG≦4 mmol/L [350 mg/dL]) were randomized to one of the following daily treatments for 12 weeks:
Of 628 patients randomized to treatment in the original study, 397 (63%) had evaluable −70° C. plasma samples for both baseline and endpoint visits.
Concentrations of non-cholesterol sterols were measured by gas chromatography-mass spectrometry (GC-MS).
as §2, with “EZE/ATORVA” for “EZE/SIMVA”, “ATORVA” for “SIMVA monotherapy”
as §3

[4] = test system: patients with primary hypercholesterolemia; test: LDL-C and other lipid parameters by treatment, EZE/ATORVA trial (Example 3); conditions: 12 weeks daily treatment, EZE 10 mg, pooled ATORVA 10-80 mg; for Triglycerides (median) % Change (±SE) from Baseline: median and SE from raw data
Experimental: as §4
In this trial, following a 4 week placebo lead-in/diet phase, patients with primary hypercholesterolemia (LDL-C 3.8-6.5 mmol/L [145-250 mg/dL] and TG≦4 mmol/L [350 mg/dL]) were randomized to one of the following daily treatments for 12 weeks: […]

SMILES	effect on concentrations of sitosterol and campesterol (baseline to endpoint), in words ([1]; pooled doses, 12 weeks)	Campesterol Ratio: Mean change (sterol:cholesterol) [1]	Desmosterol Ratio: Mean change (sterol:cholesterol) [1]	Lathosterol Ratio: Mean change (sterol:cholesterol) [1]	Sitosterol Ratio: Mean change (sterol:cholesterol) [1]	Campesterol % change (Mean % change) [1]	Desmosterol % change (Mean % change) [1]	Lathosterol % change (Mean % change) [1]	Sitosterol % change (Mean % change) [1]	HDL-C LS Mean % Change (±SE) from Baseline [2]	LDL-C LS Mean % Change (±SE) from Baseline [2]	Total Cholesterol LS Mean % Change (±SE) from Baseline [2]	Triglycerides (median) % Change (±SE) from Baseline [2]	effect on concentrations of sitosterol and campesterol (baseline to endpoint), in words [3]	effect on concentrations of cholesterol precursors lathosterol and desmosterol (baseline to endpoint), in words [3]	effect on ratios of sitosterol:cholesterol and campesterol:cholesterol, in words [3]	effect on ratios of lathosterol:cholesterol and desmosterol:cholesterol, in words [3]	Campesterol Noncholesterols:Cholesterol Ratio: Mean change [3]	Desmosterol Noncholesterols:Cholesterol Ratio: Mean change [3]	Lathosterol Noncholesterols:Cholesterol Ratio: Mean change [3]	also measured
CCC(C)(C)C(=O)O[C@H]1C[C@@H](C)C=C2C=C[C@H](C)[C@H](CC[C@@H]3C[C@@H](O)CC(=O)O3)[C@H]21 [SIMVA, simvastatin]	no significant effect	39.8* 10^2 mmol/mol	−22.8* 10^2 mmol/mol	−37.8* 10^2 mmol/mol	21.4* 10^2 mmol/mol	−1.6* %	−48.0* %	−53.5* %	−3.3* %	7.2 ± 0.8%	−37.1 ± 0.9%	−26.8 ± 0.7%	−20.4 ± 1.5%								
CC(C)c1c(C(=O)Nc2ccccc2)c(-c2ccccc2)c(-c2ccc(F)cc2)n1CC[C@@H](O)C[C@@H](O)CC(=O)O [ATORVA, atorvastatin]														significantly increased	large, significant reductions	significantly increased	significantly reduced	128*^† 10^2 mmol/mol	−34.5*^† 10^2 mmol/mol	−69.8*^† 10^2 mmol/mol	Sitosterol Noncholesterols:Cholesterol Ratio: Mean change [3]: 77.4*^† 10^2 mmol/mol; Campesterol % chng LSmean (absolute sterol concentrations) [3]: 10.1^† %; Desmosterol % chng LSmean (absolute sterol concentrations) [3]: −55.4*^† %; Lathosterol % chng LSmean (absolute sterol concentrations) [3]: −69.0*^† %; Sitosterol % chng LSmean (absolute sterol concentrations) [3]: 16.1^† %; HDL-C LS Mean % Change (±SE) from Baseline [4]: 5.21 (0.85) %; LDL-C LS Mean % Change (±SE) from Baseline [4]: −43.56 (1.02) %; Total Cholesterol LS Mean % Change (±SE) from Baseline [4]: −32.96 (0.81) %; Triglycerides (median) % Change (±SE) from Baseline [4]: −25.83 (1.80) %
O=C1[C@H](CC[C@H](O)c2ccc(F)cc2)[C@@H](c2ccc(O)cc2)N1c1ccc(F)cc1 [EZE, ezetimibe]	large, significant reductions	−78.6* 10^2 mmol/mol	25.7* 10^2 mmol/mol	36.8* 10^2 mmol/mol	−37.8* 10^2 mmol/mol	−50.5* %	16.1%	35.5* %	−46.5* %	5.5 ± 1.6%	−18.5 ± 1.8%	−13.5 ± 1.4%	−8.6 ± 3.9%	large, significant reductions	significantly increased	significantly reduced	increased	−151* 10^2 mmol/mol	38.1 10^2 mmol/mol	56.2* 10^2 mmol/mol	effect on concentrations of cholesterol precursors lathosterol and desmosterol (baseline to endpoint), in words ([1]; FIG. 8, pooled doses, 12 weeks): increased; effect on ratios of sitosterol:cholesterol and campesterol:cholesterol, in words ([1]; Table in FIG. 6, pooled doses, 12 weeks): significantly reduced; effect on ratios of lathosterol:cholesterol and desmosterol:cholesterol, in words ([1]; Table in FIG. 8, pooled doses, 12 weeks): significantly increased; Sitosterol Noncholesterols:Cholesterol Ratio: Mean change [3]: −70.1* 10^2 mmol/mol; Campesterol % chng LSmean (absolute sterol concentrations) [3]: −58.2* %; Desmosterol % chng LSmean (absolute sterol concentrations) [3]: 20.6* %; Lathosterol % chng LSmean (absolute sterol concentrations) [3]: 34.5* %; Sitosterol % chng LSmean (absolute sterol concentrations) [3]: −53.8* %; HDL-C LS Mean % Change (±SE) from Baseline [4]: 5.36 (1.71) %; LDL-C LS Mean % Change (±SE) from Baseline [4]: −17.10 (2.06) %; Total Cholesterol LS Mean % Change (±SE) from Baseline [4]: −12.97 (1.63) %; Triglycerides (median) % Change (±SE) from Baseline [4]: −2.86 (4.54) %
